# Laboratory results: PubChem BioAssay (NCI)
#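 Protocol summary: plate cells (96-well), add compound at 5 concentrations, incubate 48 h, interpolate endpoints linearly. Definition used: TGI = concentration required for complete inhibition of growth.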
# Experiments:
# Assay in all cases: DTP human tumour cell line panel, 48 h
# [1] = tested on: 786-0 renal
# [2] = tested on: A498 renal
# [3] = tested on: A549 NSCLC
# [4] = tested on: ACHN renal
# [5] = tested on: CAKI-1 renal
# [6] = tested on: CCRF-CEM leukemia
# [7] = tested on: COLO 205 colon
# [8] = tested on: DU-145 prostate
# [9] = tested on: HCT-116 colon
# [10] = tested on: HCT-15 colon
# [11] = tested on: HL-60(TB) leukemia
# [12] = tested on: HOP-62 NSCLC
# [13] = tested on: HS 578T breast
# [14] = tested on: HT29 colon
# [15] = tested on: IGROV1 ovarian
# [16] = tested on: K-562 leukemia
# [17] = tested on: KM12 colon
# [18] = tested on: LOX IMVI melanoma
# [19] = tested on: M14 melanoma
# [20] = tested on: MCF7 breast
# [21] = tested on: MDA-MB-231 breast
# [22] = tested on: MDA-MB-435
# [23] = tested on: MDA-N
# [24] = tested on: MOLT-4 leukemia
# [25] = tested on: NCI-H226 lung
# [26] = tested on: NCI-H23 lung
# [27] = tested on: NCI-H460 lung
# [28] = tested on: NCI-H522 lung
# [29] = tested on: NCI/ADR-RES ovarian
# [30] = tested on: OVCAR-3 ovarian
# [31] = tested on: OVCAR-5 ovarian
# [32] = tested on: OVCAR-8 ovarian
# [33] = tested on: PC-3 prostate
# [34] = tested on: RPMI-8226 leukemia
# [35] = tested on: SF-268 CNS
# [36] = tested on: SF-295 CNS
# [37] = tested on: SF-539 CNS
# [38] = tested on: SK-MEL-2 melanoma
# [39] = tested on: SK-MEL-5 melanoma
# [40] = tested on: SK-OV-3 ovarian
# [41] = tested on: SN12C renal
# [42] = tested on: SNB-19 CNS
# [43] = tested on: SR leukemia
# [44] = tested on: SW-620 colon
# [45] = tested on: T-47D breast
# [46] = tested on: U251 CNS
# [47] = tested on: UACC-257 melanoma
# [48] = tested on: UACC-62 melanoma
# [49] = tested on: UO-31 renal
# [50] = tested on: EKVX NSCLC
# [51] = tested on: HCC-2998 colon
# [52] = tested on: HOP-92 NSCLC
# [53] = tested on: MALME-3M melanoma
# [54] = tested on: OVCAR-4 ovarian
# [55] = tested on: RXF 393 renal
# [56] = tested on: SK-MEL-28 melanoma
# [57] = tested on: SNB-75 CNS
# [58] = tested on: TK-10 renal
smiles,measurement,setting,value
CC/C=C/C(CC)C/C(C)=C\[C@]1(CC)C[C@H](CC)[C@H](CC(=O)O)OO1 (stereo not given in full),TGI,[1],2.61 µM
same,TGI,[2],3.07 µM
same,TGI,[3],0.281 µM
same,TGI,[4],0.641 µM
same,TGI,[5],0.967 µM
same,TGI,[6],0.41 µM
same,TGI,[7],2.72 µM
same,TGI,[8],1.64 µM
same,TGI,[9],1.43 µM
same,TGI,[10],1.62 µM
same,TGI,[11],2.27 µM
same,TGI,[12],2.2 µM
same,TGI,[13],5.31 µM
same,TGI,[14],1.83 µM
same,TGI,[15],0.208 µM
same,TGI,[16],1.48 µM
same,TGI,[17],0.235 µM
same,TGI,[18],0.129 µM
same,TGI,[19],3.6 µM
same,TGI,[20],3.58 µM
same,TGI,[21],3.31 µM
same,TGI,[22],2.8 µM
same,TGI,[23],2.71 µM
same,TGI,[24],0.494 µM
same,TGI,[25],4.58 µM
same,TGI,[26],3.05 µM
same,TGI,[27],0.36 µM
same,TGI,[28],0.331 µM
same,TGI,[29],1.84 µM
same,TGI,[30],2.48 µM
same,TGI,[31],2.64 µM
same,TGI,[32],3.23 µM
same,TGI,[33],1.24 µM
same,TGI,[34],395 nM
same,TGI,[35],2.9 µM
same,TGI,[36],1.19 µM
same,TGI,[37],2.93 µM
same,TGI,[38],3.22 µM
same,TGI,[39],2.54 µM
same,TGI,[40],3.3 µM
same,TGI,[41],3.05 µM
same,TGI,[42],3.34 µM
same,TGI,[43],0.287 µM
same,TGI,[44],1.42 µM
same,TGI,[45],2.99 µM
same,TGI,[46],1.79 µM
same,TGI,[47],11.1 µM
same,TGI,[48],3.07 µM
same,TGI,[49],0.0368 µM
CCOC(CNc1nn2c(C)nnc2s1)OCC,TGI,[1],> 100 µM
same,TGI,[2],> 100 µM
same,TGI,[3],> 100 µM
same,TGI,[4],> 100 µM
same,TGI,[5],> 100 µM
same,TGI,[6],> 100 µM
same,TGI,[7],> 100 µM
same,TGI,[8],> 100 µM
same,TGI,[50],> 100 µM
same,TGI,[51],> 100 µM
same,TGI,[9],> 100 µM
same,TGI,[10],> 100 µM
same,TGI,[11],> 100 µM
same,TGI,[12],> 100 µM
same,TGI,[52],> 100 µM
same,TGI,[13],> 100 µM
same,TGI,[14],> 100 µM
same,TGI,[15],> 100 µM
same,TGI,[16],> 100 µM
same,TGI,[17],> 100 µM
same,TGI,[18],> 100 µM
same,TGI,[19],> 100 µM
same,TGI,[53],> 100 µM
same,TGI,[20],> 100 µM
same,TGI,[21],> 100 µM
same,TGI,[22],> 100 µM
same,TGI,[23],> 100 µM
same,TGI,[24],> 100 µM
same,TGI,[25],> 100 µM
same,TGI,[26],> 100 µM
same,TGI,[27],> 100 µM
same,TGI,[28],> 100 µM
same,TGI,[29],> 100 µM
same,TGI,[30],> 100 µM
same,TGI,[54],> 100 µM
same,TGI,[31],> 100 µM
same,TGI,[32],> 100 µM
same,TGI,[33],> 100 µM
same,TGI,[34],> 100000 nM
same,TGI,[55],> 100 µM
same,TGI,[35],> 100 µM
same,TGI,[36],> 100 µM
same,TGI,[37],> 100 µM
same,TGI,[38],> 100 µM
same,TGI,[56],> 100 µM
same,TGI,[39],> 100 µM
same,TGI,[40],> 100 µM
same,TGI,[41],> 100 µM
same,TGI,[42],> 100 µM
same,TGI,[57],> 100 µM
same,TGI,[43],> 100 µM
same,TGI,[44],> 100 µM
same,TGI,[58],> 100 µM
same,TGI,[46],> 100 µM
same,TGI,[47],> 100 µM
same,TGI,[48],> 100 µM
O=c1c2ccccc2n2c(-c3ccc(O)cc3)nnc2n1-c1ccccc1,TGI,[1],33.7 µM
same,TGI,[2],31.6 µM
same,TGI,[3],38.6 µM
same,TGI,[4],30 µM
same,TGI,[5],65 µM
same,TGI,[6],51.3 µM
same,TGI,[7],> 100 µM
same,TGI,[8],40.1 µM
same,TGI,[50],34.7 µM
same,TGI,[51],> 100 µM
same,TGI,[9],41.2 µM
same,TGI,[10],50.7 µM
same,TGI,[11],> 100 µM
same,TGI,[12],41 µM
same,TGI,[52],45.6 µM
same,TGI,[14],43.9 µM
same,TGI,[15],34.9 µM
same,TGI,[16],26.2 µM
same,TGI,[17],> 100 µM
same,TGI,[18],55.4 µM
same,TGI,[19],39.8 µM
same,TGI,[53],42.6 µM
same,TGI,[21],40.3 µM
same,TGI,[22],36.2 µM
same,TGI,[23],34.1 µM
same,TGI,[24],> 100 µM
same,TGI,[25],53.6 µM
same,TGI,[26],37.7 µM
same,TGI,[27],40 µM
same,TGI,[28],38.8 µM
same,TGI,[29],48.5 µM
same,TGI,[30],39.5 µM
same,TGI,[54],45.3 µM
same,TGI,[31],> 100 µM
same,TGI,[32],90.6 µM
same,TGI,[33],33.6 µM
same,TGI,[55],39.4 µM
same,TGI,[35],38.9 µM
same,TGI,[36],31.5 µM
same,TGI,[37],33.9 µM
same,TGI,[38],40.9 µM
same,TGI,[56],43.3 µM
same,TGI,[39],37.2 µM
same,TGI,[40],38.3 µM
same,TGI,[41],32.2 µM
same,TGI,[42],39.7 µM
same,TGI,[57],38.5 µM
same,TGI,[43],46.2 µM
same,TGI,[44],29.8 µM
same,TGI,[45],34.8 µM
same,TGI,[58],43.5 µM
same,TGI,[46],32.4 µM
same,TGI,[47],41.8 µM
same,TGI,[48],38.9 µM
same,TGI,[49],6.83 µM
